Measurements as given in US20250230193A1, “CYCLIC COMPOUND HAVING SELECTIVE KRAS INHIBITORY EFFECT ON HRAS AND NRAS” (CHUGAI SEIYAKU KABUSHIKI KAISHA, priority 2022, published 2025).
*1 amine or outer side, *2 acyl side, *3 side chain or, on linkers, in order; H or OH if unused. Where a SMILES comes first, the peptide text is derived from it. Bridges are numbered along the chain shown (N, C = ends). [ ]: non-standard residue; d: D form. The star is where a group is joined. hPhe(3-Cl-4-CF3) = N[C@@H](CCc1ccc(C(F)(F)F)c(Cl)c1)C(=O)O; NPrPhe(4-CF3) = CCCN[C@@H](Cc1ccc(C(F)(F)F)cc1)C(=O)O; X39 = Cc1ccc(C[C@@H](C(=O)[*:2])N(CC(C)C)[*:1])cc1; X49 = Cc1ccc(C[C@@H](C(=O)[*:2])N(CC2CC2)[*:1])cc1; X19 = CCCCN([C@@H](Cc1ccc(C)cc1)C(=O)[*:2])[*:1]; NPrPhe(4-Me) = CCCN[C@@H](Cc1ccc(C)cc1)C(=O)O; X5 = CCCN([C@H](C(=O)[*:2])C1CCCC1)[*:1]; NMeGly(cPent) = CN[C@H](C(=O)O)C1CCCC1; NMeD = CN[C@@H](CC(=O)O)C(=O)O; NMeL = CN[C@@H](CC(C)C)C(=O)O; Morpholide = C1CN(*)CCO1; NMeA = CN[C@@H](C)C(=O)O; Ac5c = NC1(C(=O)O)CCCC1; Aze = O=C(O)[C@@H]1CCN1; NEtG = CCNCC(=O)O; Sar = CNCC(=O)O

Columns and labels:
[1] = target: GDP-bound NRAS wild-type protein (Homo sapiens, UniProt P01111); experiment: Binding to NRAS by surface plasmon resonance (SPR), Single Cycle Kinetics; conditions: KD ratio NRAS/KRAS, SPR
Sequence of GDP-bound NRAS wild-type protein (P01111 whole entry): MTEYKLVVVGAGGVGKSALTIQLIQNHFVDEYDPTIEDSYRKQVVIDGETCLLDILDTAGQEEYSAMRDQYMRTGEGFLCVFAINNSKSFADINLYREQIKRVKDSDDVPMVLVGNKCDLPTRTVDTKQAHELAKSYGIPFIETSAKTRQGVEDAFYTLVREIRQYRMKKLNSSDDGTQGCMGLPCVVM

[2] = target: GDP-bound HRAS wild-type protein (Homo sapiens, UniProt P01112); experiment: Binding to HRAS by surface plasmon resonance (SPR), Single Cycle Kinetics; conditions: KD ratio HRAS/KRAS, SPR
Sequence of GDP-bound HRAS wild-type protein (P01112 whole entry): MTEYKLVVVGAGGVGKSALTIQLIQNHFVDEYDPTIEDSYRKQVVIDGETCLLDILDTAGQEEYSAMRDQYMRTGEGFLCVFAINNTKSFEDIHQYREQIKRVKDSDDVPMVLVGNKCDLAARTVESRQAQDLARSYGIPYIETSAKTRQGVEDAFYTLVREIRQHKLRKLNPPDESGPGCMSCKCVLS

| SMILES | NRAS/KRAS (ratio of KD for GDP-bound NRAS wild-type to KD for KRAS) [1] | HRAS/KRAS (ratio of KD for GDP-bound HRAS wild-type to KD for KRAS) [2] |
| --- | --- | --- |
| CCCN1C(=O)[C@@H]2CCN2C(=O)[C@H](C)N(C)C(=O)[C@H]([C@@H](C)CC)NC(=O)[C@H](CC(C)C)N(C)C(=O)C[C@@H](C(=O)N2CCOCC2)N(C)C(=O)[C@H](C2CCCC2)N(C)C(=O)C2(CCCC2)NC(=O)[C@@H]2CCCN2C(=O)[C@H](CCc2ccc(C(F)(F)F)c(Cl)c2)NC(=O)CN(C)C(=O)[C@@H]1Cc1ccc(C)cc1 [PP0052] ([NMeL]I[NMeA][Aze][NPrPhe(4-Me)][Sar][hPhe(3-Cl-4-CF3)]P[Ac5c][NMeGly(cPent)][NMeD]-Morpholide; lactam N-11) | C (A compound having a KD ratio of 0.1 or more and less than 3 is denoted as C) | B (a compound having 3 or more and less than 10 is denoted as B) |
| CCCN1C(=O)[C@@H]2CCN2C(=O)[C@H](C)N(C)C(=O)[C@H]([C@@H](C)CC)NC(=O)[C@H](CC(C)C)N(C)C(=O)C[C@@H](C(=O)N2CCOCC2)N(C)C(=O)[C@H](C2CCCC2)N(C)C(=O)C2(CCCC2)NC(=O)[C@@H]2CCCN2C(=O)[C@H](CCc2ccc(C(F)(F)F)c(Cl)c2)NC(=O)CN(C)C(=O)[C@@H]1Cc1ccc(C(F)(F)F)cc1 [PP0053] ([NMeL]I[NMeA][Aze][NPrPhe(4-CF3)][Sar][hPhe(3-Cl-4-CF3)]P[Ac5c][NMeGly(cPent)][NMeD]-Morpholide; lactam N-11) | C (A compound having a KD ratio of 0.1 or more and less than 3 is denoted as C) | C (A compound having a KD ratio of 0.1 or more and less than 3 is denoted as C) |
| CCCCN1C(=O)[C@@H]2CCN2C(=O)[C@H](C)N(C)C(=O)[C@H]([C@@H](C)CC)NC(=O)[C@H](CC(C)C)N(C)C(=O)C[C@@H](C(=O)N2CCOCC2)N(C)C(=O)[C@H](C2CCCC2)N(C)C(=O)C2(CCCC2)NC(=O)[C@@H]2CCCN2C(=O)[C@H](CCc2ccc(C(F)(F)F)c(Cl)c2)NC(=O)CN(C)C(=O)[C@@H]1Cc1ccc(C)cc1 [PP0055] ([NMeL]I[NMeA][Aze][X19][Sar][hPhe(3-Cl-4-CF3)]P[Ac5c][NMeGly(cPent)][NMeD]-Morpholide; lactam N-11) | C (A compound having a KD ratio of 0.1 or more and less than 3 is denoted as C) | C (A compound having a KD ratio of 0.1 or more and less than 3 is denoted as C) |
| CC[C@H](C)[C@@H]1NC(=O)[C@H](CC(C)C)N(C)C(=O)C[C@@H](C(=O)N2CCOCC2)N(C)C(=O)[C@H](C2CCCC2)N(C)C(=O)C2(CCCC2)NC(=O)[C@@H]2CCCN2C(=O)[C@H](CCc2ccc(C(F)(F)F)c(Cl)c2)NC(=O)CN(C)C(=O)[C@H](Cc2ccc(C)cc2)N(CC(C)C)C(=O)[C@@H]2CCN2C(=O)[C@H](C)N(C)C1=O [PP0056] ([NMeL]I[NMeA][Aze][X39][Sar][hPhe(3-Cl-4-CF3)]P[Ac5c][NMeGly(cPent)][NMeD]-Morpholide; lactam N-11) | C (A compound having a KD ratio of 0.1 or more and less than 3 is denoted as C) | B (a compound having 3 or more and less than 10 is denoted as B) |
| CC[C@H](C)[C@@H]1NC(=O)[C@H](CC(C)C)N(C)C(=O)C[C@@H](C(=O)N2CCOCC2)N(C)C(=O)[C@H](C2CCCC2)N(C)C(=O)C2(CCCC2)NC(=O)[C@@H]2CCCN2C(=O)[C@H](CCc2ccc(C(F)(F)F)c(Cl)c2)NC(=O)CN(C)C(=O)[C@H](Cc2ccc(C)cc2)N(CC2CC2)C(=O)[C@@H]2CCN2C(=O)[C@H](C)N(C)C1=O [PP0057] ([NMeL]I[NMeA][Aze][X49][Sar][hPhe(3-Cl-4-CF3)]P[Ac5c][NMeGly(cPent)][NMeD]-Morpholide; lactam N-11) | C (A compound having a KD ratio of 0.1 or more and less than 3 is denoted as C) | B (a compound having 3 or more and less than 10 is denoted as B) |
| CCCN1C(=O)[C@@H]2CCN2C(=O)[C@H](C)N(C)C(=O)[C@H]([C@@H](C)CC)NC(=O)[C@H](CC(C)C)N(C)C(=O)C[C@@H](C(=O)N2CCOCC2)N(C)C(=O)[C@H](C2CCCC2)N(C)C(=O)C2(CCCC2)NC(=O)[C@@H]2CCCN2C(=O)[C@H](CCc2ccc(C(F)(F)F)c(Cl)c2)NC(=O)CN(CC)C(=O)[C@@H]1Cc1ccc(C)cc1 [PP0058] ([NMeL]I[NMeA][Aze][NPrPhe(4-Me)][NEtG][hPhe(3-Cl-4-CF3)]P[Ac5c][NMeGly(cPent)][NMeD]-Morpholide; lactam N-11) | C (A compound having a KD ratio of 0.1 or more and less than 3 is denoted as C) | C (A compound having a KD ratio of 0.1 or more and less than 3 is denoted as C) |
| CCCN1C(=O)CN(C)C(=O)CN(C)C(=O)[C@H]([C@@H](C)CC)NC(=O)[C@H](CC(C)C)N(C)C(=O)C[C@@H](C(=O)N2CCOCC2)N(C)C(=O)[C@H](C2CCCC2)N(C)C(=O)C2(CCCC2)NC(=O)[C@@H]2CCCN2C(=O)[C@H](CCc2ccc(C(F)(F)F)c(Cl)c2)NC(=O)CN(C)C(=O)[C@@H]1Cc1ccc(C)cc1 [PP0059] ([NMeL]I[Sar][Sar][NPrPhe(4-Me)][Sar][hPhe(3-Cl-4-CF3)]P[Ac5c][NMeGly(cPent)][NMeD]-Morpholide; lactam N-11) | B (a compound having 3 or more and less than 10 is denoted as B) | C (A compound having a KD ratio of 0.1 or more and less than 3 is denoted as C) |
| CCCN1C(=O)CN(C)C(=O)CN(C)C(=O)[C@H]([C@@H](C)CC)NC(=O)[C@H](CC(C)C)N(C)C(=O)C[C@@H](C(=O)N2CCOCC2)N(C)C(=O)[C@H](C2CCCC2)N(C)C(=O)C2(CCCC2)NC(=O)[C@@H]2CCCN2C(=O)[C@H](CCc2ccc(C(F)(F)F)c(Cl)c2)NC(=O)CN(C)C(=O)[C@@H]1Cc1ccc(C(F)(F)F)cc1 [PP0060] ([NMeL]I[Sar][Sar][NPrPhe(4-CF3)][Sar][hPhe(3-Cl-4-CF3)]P[Ac5c][NMeGly(cPent)][NMeD]-Morpholide; lactam N-11) | B (a compound having 3 or more and less than 10 is denoted as B) | B (a compound having 3 or more and less than 10 is denoted as B) |
| CCCN1C(=O)CN(C)C(=O)CN(C)C(=O)[C@H]([C@@H](C)CC)NC(=O)[C@H](CC(C)C)N(C)C(=O)C[C@@H](C(=O)N2CCOCC2)N(C)C(=O)[C@H](C2CCCC2)N(C)C(=O)C2(CCCC2)NC(=O)[C@@H]2CCCN2C(=O)[C@H](CCc2ccc(C(F)(F)F)c(Cl)c2)NC(=O)CN(C)C(=O)[C@@H]1C1CCCC1 [PP0061] ([NMeL]I[Sar][Sar][X5][Sar][hPhe(3-Cl-4-CF3)]P[Ac5c][NMeGly(cPent)][NMeD]-Morpholide; lactam N-11) | B (a compound having 3 or more and less than 10 is denoted as B) | C (A compound having a KD ratio of 0.1 or more and less than 3 is denoted as C) |
| CCCCN1C(=O)CN(C)C(=O)CN(C)C(=O)[C@H]([C@@H](C)CC)NC(=O)[C@H](CC(C)C)N(C)C(=O)C[C@@H](C(=O)N2CCOCC2)N(C)C(=O)[C@H](C2CCCC2)N(C)C(=O)C2(CCCC2)NC(=O)[C@@H]2CCCN2C(=O)[C@H](CCc2ccc(C(F)(F)F)c(Cl)c2)NC(=O)CN(C)C(=O)[C@@H]1Cc1ccc(C)cc1 [PP0062] ([NMeL]I[Sar][Sar][X19][Sar][hPhe(3-Cl-4-CF3)]P[Ac5c][NMeGly(cPent)][NMeD]-Morpholide; lactam N-11) | C (A compound having a KD ratio of 0.1 or more and less than 3 is denoted as C) | C (A compound having a KD ratio of 0.1 or more and less than 3 is denoted as C) |
| CC[C@H](C)[C@@H]1NC(=O)[C@H](CC(C)C)N(C)C(=O)C[C@@H](C(=O)N2CCOCC2)N(C)C(=O)[C@H](C2CCCC2)N(C)C(=O)C2(CCCC2)NC(=O)[C@@H]2CCCN2C(=O)[C@H](CCc2ccc(C(F)(F)F)c(Cl)c2)NC(=O)CN(C)C(=O)[C@H](Cc2ccc(C)cc2)N(CC(C)C)C(=O)CN(C)C(=O)CN(C)C1=O [PP0063] ([NMeL]I[Sar][Sar][X39][Sar][hPhe(3-Cl-4-CF3)]P[Ac5c][NMeGly(cPent)][NMeD]-Morpholide; lactam N-11) | C (A compound having a KD ratio of 0.1 or more and less than 3 is denoted as C) | C (A compound having a KD ratio of 0.1 or more and less than 3 is denoted as C) |
| CC[C@H](C)[C@@H]1NC(=O)[C@H](CC(C)C)N(C)C(=O)C[C@@H](C(=O)N2CCOCC2)N(C)C(=O)[C@H](C2CCCC2)N(C)C(=O)C2(CCCC2)NC(=O)[C@@H]2CCCN2C(=O)[C@H](CCc2ccc(C(F)(F)F)c(Cl)c2)NC(=O)CN(C)C(=O)[C@H](Cc2ccc(C)cc2)N(CC2CC2)C(=O)CN(C)C(=O)CN(C)C1=O [PP0064] ([NMeL]I[Sar][Sar][X49][Sar][hPhe(3-Cl-4-CF3)]P[Ac5c][NMeGly(cPent)][NMeD]-Morpholide; lactam N-11) | C (A compound having a KD ratio of 0.1 or more and less than 3 is denoted as C) | C (A compound having a KD ratio of 0.1 or more and less than 3 is denoted as C) |
| CCCN1C(=O)CN(CC)C(=O)CN(C)C(=O)[C@H]([C@@H](C)CC)NC(=O)[C@H](CC(C)C)N(C)C(=O)C[C@@H](C(=O)N2CCOCC2)N(C)C(=O)[C@H](C2CCCC2)N(C)C(=O)C2(CCCC2)NC(=O)[C@@H]2CCCN2C(=O)[C@H](CCc2ccc(C(F)(F)F)c(Cl)c2)NC(=O)CN(C)C(=O)[C@@H]1Cc1ccc(C)cc1 [PP0065] ([NMeL]I[Sar][NEtG][NPrPhe(4-Me)][Sar][hPhe(3-Cl-4-CF3)]P[Ac5c][NMeGly(cPent)][NMeD]-Morpholide; lactam N-11) | C (A compound having a KD ratio of 0.1 or more and less than 3 is denoted as C) | C (A compound having a KD ratio of 0.1 or more and less than 3 is denoted as C) |
